According to patent US20220313620A1, “COMPOSITION FOR PREVENTING AND TREATING TAUOPATHIES” (SERVICIO ANDALUZ DE SALUD, priority 2019, published 2022):

Legend:
insulin = assay: Plasma insulin (ELISA) and HOMA insulin resistance index after acute oral gavage; assay type: in vivo; conditions: adult male Wistar rats
Description: (§1) The protocol was approved by the Ethics Committee for Animal Experiments of the University of Malaga.
(§2) D-Pinitol (3-0-methyl-D-chiro-inositol) was generously provided by EURONUTRA SL (https://www.euronutra.com/, Malaga, Spain), in the form of crystalline fine powder (lot: PPN-M0201). For acute treatments, D-Pinitol was dissolved in water to be administered by gavage (orally) at different concentrations (100 mg/Kg and 500 mg/Kg), drug was administered at a volume of 1 ml/kg.
After 18 hours of fasting, D-Pinitol dissolved in water was administered acutely by gavage (100 mg/kg in a first study, and 500 mg/kg in a subsequent study). After administration, the animals were sacrificed in groups at different times (being time 0 the administration of D-Pinitol). For the first study (100 mg/kg), groups of animals were sacrificed at times: 10, 20, 30, 60, 120, 240 and 360 minutes after administration; for the second study (500 mg/kg), animals were sacrificed at times: 60, 120 and 240 minutes after administration. As a control group, a group was administered only with water (by gavage).
Animals were anesthetized with sodium pentobarbital (50 mg/Kg, i.p.), blood, brain and liver samples were collected. Blood was centrifuged (2100 g for 8 min, 4° C.) and the plasma kept for further analysis. Liver and brain samples were flash-frozen in liquid N2, then stored at −80° C. until further analysis.
The plasma levels of insulin and ghrelin were determined with an enzyme-linked immunosorbent assay (ELISA) method using commercial kits: EMD Millipore Corporation (Billerica, Mass., USA) Cat. #EZRMI-13K and Cat. #EZRGRT-91K, respectively. Glucagon levels in plasma was determined with a Glucagon Enzyme Immunoassay (EIA) Kit: Cat. #RAB0202 Sigma-Aldrich (Saint Louis, Mo., USA). All serum samples were assayed in duplicate within one assay, and results were expressed in terms of the particular standard hormone.

[1] = tested on: Cyclin Dependent Kinase 5 (CDK5); assay: Hippocampal CDK5, p35 and p25 protein levels (western blot) after 10 days of oral drinking; assay type: in vivo, Wistar rats; conditions: oral by drinking 100 mg/Kg for 10 days, hippocampus, FIG. 8A
Description: Animal experimental procedures were carried out in accordance with the European Communities directive 2010/63/EU and Spanish legislation (Real Decreto 53/2013). The protocol was approved by the Research and approved by Ethics Committee for Animal Experiments of the University of Malaga, Spain. In accordance with the ARRIVE guidelines, all efforts were made to minimize animal suffering and to reduce the number of animals used per experimental group. Chronic drinking experiments on Wistar rats were performed on 20 male rats. All adult rats, ageing 2 months (≈300 g of body weight), were provided by Charles River Laboratories (Barcelona, Spain). The animals were housed individually under a standard 12 h light-dark cycle in a room with temperature and humidity control. Water and rat chow pellets were provided ad libitum throughout the course of the present study.
Caromax®-D-Pinitol (3-O-methyl-d-chiro-inositol, DPIN, 98% purity) and Caromax®-D-Chiro-inositol (cis-1,2,3-trans-3,5,6-cyclohexanehexol, DCI) were provided by Euronutra SL (Málaga, Spain). They were dissolved in water to orally daily administration by drinking and/or gavage at dose of 100 mg/Kg of body weight (BW) in a 1 ml/kg of BW volume to Zucker and Wistar rats for 4 weeks (28 days) and 10 days, respectively (FIG. 1). During the drinking treatments, the concentration of inositols in the water were updated considering the daily increase of BW of the rats and the possible loss of water by evaporation.
Brain extract. […]
Western Blot Analysis. […] Bands were quantified by densitometric analysis using ImageJ software (Rasband, WS, ImageJ, US National Institutes of Health, Bethesda, Md., USA). […] The results were expressed as the protein/α-Adaptin ratio or phosphorylated/total protein ratio and normalized to the control group (Y axis represents ‘fold mean of the control values’).
All data are expressed as mean±SEM. […]

Glucagon = assay: Plasma glucagon (EIA) after acute oral gavage; assay type: in vivo; conditions: oral 500 mg/kg, adult male Wistar rats, FIG. 3E
Description: as §1, §2
After 18 hours of fasting, D-Pinitol dissolved in water was administered acutely by gavage (100 mg/kg in a first study, and 500 mg/kg in a subsequent study). After administration, the animals were sacrificed in groups at different times (being time 0 the administration of D-Pinitol). For the first study (100 mg/kg), groups of animals were sacrificed at times: 10, 20, 30, 60, 120, 240 and 360 minutes after administration; for the second study (500 mg/kg), animals were sacrificed at times: 60, 120 and 240 minutes after administration. […]
The plasma levels of insulin and ghrelin were determined with an enzyme-linked immunosorbent assay (ELISA) method using commercial kits: EMD Millipore Corporation (Billerica, Mass., USA) Cat. #EZRMI-13K and Cat. #EZRGRT-91K, respectively. Glucagon levels in plasma was determined with a Glucagon Enzyme Immunoassay (EIA) Kit: Cat. #RAB0202 Sigma-Aldrich (Saint Louis, Mo., USA). […]

SMILES: COC1[C@@H](O)[C@@H](O)C(O)[C@H](O)[C@H]1O (stereo partly drawn) [DPIN, (1S,2S,4S,5R)-6-methoxycyclohexane-1,2,3,4,5-pentol]
- insulin release into the blood circulation (insulin; oral 100 mg/kg, FIG. 2B): decreased
- insulin resistance measured by the HOMA index (insulin; oral 100 mg/kg, FIG. 2C): reduction
- insulin release into the blood circulation (insulin; oral 500 mg/kg, FIG. 3B): decreased
- insulin resistance measured by the HOMA index (insulin; oral 500 mg/kg, FIG. 3D): reduction
- amount of p25 [1]: significantly decreased
- amount of p35 subunit [1]: significantly decreased
- total amount of CDK5 [1]: does not vary
- glucagon secretion (Glucagon): Increase
